Assays:
[1] = tested on: OVA-specific immune response; test: Example 11: in vivo immune response after footpad vaccination with OVA formulations; set-up: species or system mice
Description: FIG. 14: Mice were vaccinated at day 0 and day 28 with 10 μg OVA equivalent of the various forms and combinations shown, and were sacrificed on day 35 for analysis. The intensity of the CD8+ T cell response was judged by measuring the frequency of […] (SEQ ID NO. 1) pentamer-binding cells.
FIG. 15: Mice were vaccinated at day 0 and day 28 with 10 μg OVA equivalent of the various forms and combinations shown, and were sacrificed on day 35 for analysis. The cytokine responsiveness of cells in the LN was determined after antigen re-exposure. […] Separation of the formulation into its component parts was not effective: of particular note, free antigen mixed with but not conjugated to the p(Man-TLR) nanoadjuvant (OVA+pManTLR, yellow) was not nearly as effective, showing the need for the conjugate.
FIG. 16: The humoral response to vaccination was characterized by measuring the frequency of antibody-producing plasma cells and the frequency of Tfh cells in the spleen, and the antibody titers in the blood.
Mice were vaccinated in the four footpads on day 0 and 28 with either OVA-p(Man-TLR), OVA and mTLR, OVA conjugated to p(Man) (OVA-p(Man)) and mTLR, OVA+p(Man-TLR) or just p(Man-TLR). Animals treated with formulations containing OVA received 10 μg of OVA in its free or conjugated form, and animals treated with formulations containing TLR received 30 μg of TLR in its free or […] form. The animals were sacrificed on day 35 and the spleens and lymph nodes were analyzed for the resulting immune response.

B16F10/OVA tumors = test: Example 13: cancer vaccination in mice bearing B16F10/OVA tumors; format: in vivo, C57BL/6 mice
Description: In order to determine if OVA-p(Man-TLR) conjugates could inhibit the growth of OVA-expressing tumors, mice bearing B16F10/OVA tumors (that is, B16F10 melanoma cells expressing the xeno-antigen OVA as a model tumor antigen) were treated with OVA-p(Man-TLR). 10^5 B16F10/OVA cells were inoculated subcutaneously (s.c.) between the scapulae in C57BL/6 mice on day 0 and left to engraft and grow for 4 days. On day 4, 7, and 14, mice were administered saline or vaccinated with OVA-p(Man-TLR) or OVA and free p(Man-TLR). Animals treated with OVA received 10 μg OVA and 40 μg of TLR.

DCs (CD11c+ cells) = test: Example 10: in vivo DC activation in draining lymph nodes after footpad injection; set-up: species or system mice; conditions: footpads, 50 μg fluorescently-labeled OVA, 24 h
Description: Activation is highest in DCs that collect the formulation and thus are also antigen-positive. Thus, both antigen and adjuvant are co-delivered to the same DCs, which are then the cells that are activated. This is one of the benefits of selecting TLR7 as an adjuvant target, based on its intracellular, endosomal localization.
In order to be an effective adjuvant/delivery system for vaccine development, p(Man-TLR) conjugates preferably target antigens to APCs and activate these cells in vivo. Mice were injected in the footpads with 50 μg of fluorescently-labeled OVA conjugated to p(Man-TLR) or free non-conjugated fluorescently-labeled OVA. After 24 h, the draining lymph nodes of these animals were collected and processed into single cells suspensions. The lymphocytes were then analyzed via flow cytometry for the presence of the co-stimulatory molecule markers CD86 and CD80 on APCs. […] Furthermore, CD11c+ cells that had taken up OVA-p(Man-TLR) conjugates (i.e., Protein+CD11c+ cells) had higher levels of expression of CD80 and CD86 as compared to the expression of CD80 and CD86 on the total CD11c+ population of mice treated with OVA-p(Man-TLR).

[2] = tested on: OVA-specific immune response; test: OVA vaccination day 0 and 28, humoral immune response; format: in vivo, mice
Description: (§1) Mice were immunized on day 0 and 28 with one of […] formulations: 1.) 10 μg of OVA+30 μg, 2.) p(Man-TLR) (30 μg equivalent of TLR7-MA), 3.) 10 μg of OVA and unconjugated p(Man-TLR) (30 μg equivalent of TLR7-MA), 4.) 10 μg of OVA-p(Man) conjugate with 30 μg of TLR7-MA, or 5.) 10 μg of OVA-p(Man-TLR).
In order to initiate protection against extracellular microorganisms and to prevent the spread of intracellular infections, effective vaccines preferably induce a strong humoral immune response. The ability of OVA-p(Man-TLR) to mount an effective humoral immune response was analyzed by determining the percentage of T follicular helper (Tfh) cells in the LN and spleen, the number of antigen specific plasma cells in the spleen, and the OVA specific antibody titers of vaccinated mice. […] Given these impressive results, we analyzed the blood of vaccinated animals for total OVA-specific IgG titers as well as OVA-specific IgG2C titers.

[3] = tested on: OVA-specific immune response; test: OVA vaccination day 0 and 28, T cell response after restimulation; format: in vivo, mice
Description: as §1
Given the ability of p(Man-TLR) to activate BMDCS and target tethered proteins to various DC-subsets, mice were treated with OVA-p(Man-TLR) and the OVA-specific immune response was analyzed. Animals were treated on day 0 and 28 with an i.d. injection of OVA-p(Man-TLR), OVA-p(Man)+TLR7-MA, OVA and unconjugated p(Man-TLR), p(Man-TLR), or OVA+CpG. Mice receiving formulations that contained either free or polymer-conjugated OVA were treated with 10 μg of OVA on days 0 and 28. Mice treated with formulations containing either TLR7-MA or p(man-TLR) either free or OVA conjugated received 30 μg of TLR7-agonist as TLR7-MA or the total weight of TLR7-MA monomer units in the polymer on days 0 and 28. Mice treated with OVA and CPG received 30 μg of CPG on days 0 and 28. After 35 days, the lymphocytes from the spleen and lymph node were harvested and restimulated with either whole OVA or the CD8 immunodominant peptide […].

## OVA-p(Man-TLR): model antigen ovalbumin (OVA) conjugated to p(Man-TLR) via self-immolative linker
[1]; FIG. 16
  OVA-specific total IgG vs non-conjugate vaccine (OVA+pMan-TLR): elevated by more than an order of magnitude
[1]; day 35
  CD8+ and CD4+ T cells positive for both TNFα and IFNγ upon restimulation vs other treatments: significantly more CD8+ and CD4+ T cells that are positive for both the proinflammatory cytokines TNFα and IFNγ
  OVA-specific antibodies in the blood vs other treatments: significantly more OVA-specific antibodies in the blood
  splenic IgG producing plasma cells and T follicular helper cells vs other treatments: significantly more splenic IgG producing plasma cells and T follicular helper cells
[1]; footpads day 0 and 28, 10 μg OVA, 30 μg TLR, day 35
  OVA pentamer+ cells in lymph nodes and spleens vs other therapies: significantly more OVA pentamer+ cells in the lymph nodes and spleens
B16F10/OVA tumors; treated day 4, 7 and 14, 10 μg OVA and 40 μg of TLR
  growth of B16/OVA tumors: capable of inhibiting the growth of B16/OVA tumors
B16F10/OVA tumors; tumor-bearing mice
  pentamer+CD8+ cells in the draining lymph nodes vs OVA+p(Man-TLR): induced significantly more pentamer+CD8+ cells in the draining lymph nodes
B16F10/OVA tumors; tumor-bearing mice, FIG. 20
  percentage of OVA pentamer+ cells in the draining lymph nodes: increased the percentage of OVA pentamer+ cells in the draining lymph nodes
DCs (CD11c+ cells)
  CD80 and CD86 expression on CD11c+ cells of draining lymph nodes vs free OVA: express significantly more CD80 and CD86
[2]; blood of vaccinated animals
  total OVA-specific IgG and IgG2C titers vs other vaccine formulations: significant increase in both total IgG and IgG2C titers
[2]; day 35, spleen, FIG. 11C
  increase in number of IgG-producing plasma cells vs OVA+p(Man-TLR) or other formulations: more than 2 fold
[2]; day 35, vaccination on days 0 and 28
  percentage of Tfh in lymph node and spleen vs other treatments: significantly increases the percentage of Tfh in the lymph node and spleen
[3]; i.d. day 0 and 28, 10 μg OVA, 30 μg TLR7-agonist, day 35
  IFNγ+CD4+ T cells after restimulation vs other treatments: significantly more IFNγ+CD4+ T cells
[3]; i.d. day 0 and 28, day 35
  IFNγ+CD8 T cells in the lymph nodes vs OVA-p(Man)+TLR7-MA and OVA+CpG: increased the number of IFNγ+CD8 T cells in the lymph nodes
  TNFα positive CD8+ and CD4+ T cells in restimulated splenocytes vs other TLR7-MA or p(Man-TLR) formulations: significantly increased the number of CD8+ and CD4+ T cells that are positive for TNFα

Source: patent US11484599B2, “Polymer conjugate vaccines” (The University of Chicago, priority 2015, dated 2022)
